Our source for the IC50 values is BindingDB's records for doi:10.1016/j.bmcl.2019.06.040 (Shenyang Pharmaceutical University, 2019).

This series deals with T1, Cytochrome P450 11B2, mitochondrial (Homo sapiens, UniProt P19099).
T1 sequence (P19099 whole entry): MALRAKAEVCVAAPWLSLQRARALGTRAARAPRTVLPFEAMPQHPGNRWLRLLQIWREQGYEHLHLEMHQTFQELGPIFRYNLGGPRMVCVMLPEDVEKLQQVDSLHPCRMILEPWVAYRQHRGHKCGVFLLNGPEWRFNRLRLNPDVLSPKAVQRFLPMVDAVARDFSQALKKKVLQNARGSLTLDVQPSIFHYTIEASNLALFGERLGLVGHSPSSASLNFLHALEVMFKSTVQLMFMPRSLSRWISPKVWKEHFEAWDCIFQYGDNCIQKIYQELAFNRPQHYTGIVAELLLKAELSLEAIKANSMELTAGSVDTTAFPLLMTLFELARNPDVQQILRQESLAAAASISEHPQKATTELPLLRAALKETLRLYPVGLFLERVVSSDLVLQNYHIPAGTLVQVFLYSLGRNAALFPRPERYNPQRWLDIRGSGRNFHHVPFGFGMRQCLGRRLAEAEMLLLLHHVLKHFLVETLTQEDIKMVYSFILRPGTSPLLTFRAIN
Kind of series: Inhibition of CYP11B2 (unknown origin).
In turn, `Cc1nnc2n1-c1cc(F)c(-c3cccnc3)cc1CC2` had a 50% inhibitory concentration (IC50) of 131 nM.

As to `Fc1cc(-c2cccnc2)cc2c1-n1cnnc1CC2`, the half-inhibitory concentration (IC50) amounted to 172 nM.

The compound `Fc1cc2c(cc1-c1cccnc1)CCc1nncn1-2` had an IC50 of 244 nM.

Turning to `Cc1nnc2n1-c1c(F)cc(-c3cccnc3)cc1CC2`, the IC50 came to 63 nM.

In general, IC50 refers to the concentration that gives 50% inhibition. Read a high IC50 as a need for much substance.
